SMILES | melting point
CC(CNc1ccc(C(=O)O)cc1)Oc1ccccc1 (stereo not drawn) | 140 to 144 °C
COc1ccc2[nH]c(C3CCC(c4ccccc4)(N(C)C)CC3)c(C)c2c1 (stereo not drawn) | 156 to 163 °C
Cn1cc(C(=O)NCc2ccc(Cl)cc2)c(=O)c2cc(CC3CCOCC3)cc(C#CCO)c21 | 166 to 168 °C
COc1ccc(C(C)C)cc1-c1cc(-c2nnnn2C2CCNC2)c(OCc2ccccc2)cc1OCc1ccccc1 (stereo not drawn) | 85 to 87 °C
O=C1c2cc(OCc3ccccn3)ccc2OCC1Oc1cccnc1 (stereo not drawn) | 155 to 156 °C
CCc1nc(C)c(CCC(=O)N(CC)CC)c(=O)n1Cc1ccc(-c2ccccc2-c2nnn[nH]2)cc1 | 100 to 105 °C
CCOC(=O)c1cnc(C)nc1NCc1ccc(-c2ccccc2-c2nnn[nH]2)cc1 | 121 to 123 °C
CCOC(=O)c1[nH]c2ccc(Cl)cc2c1S(=O)(=O)c1ccccc1 | 201 to 202 °C
O=[N+]([O-])c1[nH]c(-c2c(Cl)cc(C(F)(F)F)cc2Cl)nc1C(F)(F)F | 244 to 252 °C
CCc1c(C)sc2[nH]c(=O)c(=O)[nH]c12 | > 300 °C
CC1(C)C(=O)Nc2cc(-c3nc4ccccc4[nH]3)ccc21 | 326 to 330 °C
CCCCc1c(C(=O)c2ccc(OCCCN(CCCC)CCCC)cc2)[nH]c2ccc([N+](=O)[O-])cc12 | 80 °C
CN1CCC(NC(c2cccc(O)c2)c2nc3ccccc3[nH]2)CC1 (stereo not drawn) | 230 °C
NC[C@@H]1C[C@@H](SC(c2ccccc2)(c2ccccc2)c2ccccc2)CN1S(=O)(=O)c1ccc2ccccc2c1 | 88 to 89 °C
COc1ccc2ncc(S(=O)(=O)N(C)C)c(O)c2c1 | > 300 °C
CCC1C(=O)Nc2ccc(-c3ccc(C#N)n3C)cc21 (stereo not drawn) | 145 to 147 °C
CCOC(=S)c1ccc(C)c(-c2cc(C)no2)c1C | 72 to 74 °C
CCOCCCCC(=S)c1ccc(C)cc1 | 62 to 63.5 °C
COC(=O)c1cc(=O)n(C)c2ccc(C(=O)c3ccc(Cl)cc3)cc12 | 182 °C
O=CNc1nc(S(=O)(=O)Cl)n[nH]1 | 194 to 196 °C
COc1cccc2c(=O)[nH]c(C3CCN(C)CC3)cc12 | 239 to 242 °C
O=C(O)CCCC=C(c1cccnc1)c1cccc(NC(=S)Nc2ccc(Cl)cc2Cl)c1 | 154 to 155 °C
Cc1ccc(C[C@H](N)[C@H](O)c2ccc(F)cc2)cc1OC(F)(F)C(F)F (racemic) | 112 to 113 °C
Cn1nc(Br)c([N+](=O)[O-])c1NC(C)(C)C | 75 to 77 °C
CC(=O)On1c(=N)n[n+]([O-])c2ccccc21 | 194 to 196 °C

SMILES | melting point
COc1ccc2c(c1)C(=O)CC21CCCC1 | 80 °C
CC(C)(C)OC(=O)[C@H]1CCCN1CC(=O)N1CCC[C@@H]1C(=O)OC(C)(C)C | 75 to 76 °C
O=c1c2sc3ccccc3c2oc2cc(O)cc(O)c12 | > 300 °C
CC(=O)c1ccc2c(c1)CCc1ccc(C(=O)O)cc1S2 | 230 to 232 °C
Cc1cccc(C)c1C(c1cccc2ccccc12)C(C#N)C(=O)OC(C)(C)C (stereo not drawn) | 124 to 128 °C
N#CC(Cl)CC(Cl)(Cl)C(=O)Oc1ccccc1 (stereo not drawn) | 51.5 to 52.5 °C
CCC(COC)NC(=O)C(Cc1ccc(OCc2ccccc2)cc1)NC(=O)C(CC(C)C)N(C)Cc1ccc(N(C)C)cc1 (stereo not drawn) | 109 to 112 °C
Cc1ccc(COc2ccc(C=NCc3ccco3)cc2)cc1 | 71 °C
COc1cc(Nc2cc(C(=O)NN)ccn2)cc(C(F)(F)F)c1 | 229 to 230 °C
COC(=O)c1ccc([C@H]2CC[C@H](C=O)CC2)cc1 | 84 to 85 °C
CC(C)Oc1ccc(CCCOc2cc(CCC(=O)O)n(-c3ccccc3)n2)c(Oc2ncc(C(F)(F)F)cc2Cl)c1 | 86 to 88 °C
COc1cc2c(cc1Nc1ncc(Cl)c(Nc3ccc(N4CCOCC4)cc3OC)n1)CCOC(=O)N2C | 242 to 245 °C
CCN(C(=O)OC)C1=CC(=O)CC1 | 68 to 68.5 °C
CCOC(=O)COc1ccc(C(=O)Nc2ccccc2Oc2cccc(-c3nnn[nH]3)c2)cc1 | 165 to 166 °C
Cc1cccc(-c2nc(NCc3ccc(Cl)cc3)c3ccccc3n2)n1 | 210 to 212 °C
Cc1cc(Nc2cc(-c3cccc(N4Cc5cc(C(C)(C)C)ccc5C4=O)c3CO)cn(C)c2=O)nn1C | 225 to 227 °C
c1ccc(C2CCNC3=NCCCN32)cc1 (stereo not drawn) | 177 to 179 °C
CN(C)C(=O)C1=C(C(=O)Nc2ccc(Br)cc2F)CCCC1 | 83 to 85 °C
COc1ccc(-c2nc(C(C)=O)c[nH]2)cc1 | 248 to 250 °C
CC(C)n1nc(-c2c(Sc3ccccc3)nc(N)nc2-c2ccccc2)ccc1=O | 214 to 215 °C
CCCc1nc2c(N)nc3ccccc3c2n1CC1(O)CCOC1 (stereo not drawn) | 201 to 203 °C
CC(Cl)=CCOc1ccc(C(=O)O)nc1 | 96 to 98 °C
OCc1ccc2cc(OCc3ccccc3)ccc2c1 | 130 to 132 °C
C=CC(=O)OCc1c(Br)c(Br)c(Br)c(COC(=O)C=C)c1Br | 105 to 108 °C
O=C(NCc1ccc(Cl)cc1)c1cn(CCN2CCOCC2)c2ccc(C#CCO)cc2c1=O | 215 to 218 °C

SMILES | melting point
COc1ccc(/C=C\c2ccc(OC)c(OC)c2OC)cc1 | 55 to 57 °C
CCOc1ccc2[nH]c(C(=O)O)cc2c1 | 180 °C
CNc1onc2c1CCC2 | 52 °C
Cc1ccccc1Oc1cccc2c1OC(=O)CC2 | 80 to 82 °C
Fc1ccc(-c2nccc3c(CCl)cccc23)cc1 | 110 to 112 °C
CN1C(=O)C2C3CCC(CC3)C2(c2ccc(Cl)c(Cl)c2)C1=O (stereo not drawn) | 126 to 134 °C
Cc1c(CO)oc2ccc(Cl)cc12 | 112 to 113 °C
O=C(NCC(O)c1ccccc1)c1ccccc1 (stereo not drawn) | 140 to 143 °C
COc1ccc2c(c1)cc1n2CCC(COC(C)=O)C1 (stereo not drawn) | 98 to 100 °C
COC(=O)c1cc2c(N3CCNCC3)cccc2[nH]1 | 177 to 180 °C
COc1cc(C(=O)Nc2ccc(N3CCOCC3)cc2C(C)=O)ccc1OCc1ccccc1 | 192 to 194 °C
O=C(Cc1c2c(nn1-c1ccccc1)c(=O)[nH]c1ccccc12)N1CCN(Cc2ccccc2)CC1 | 283 to 285 °C
Cc1ccc(COc2cccnc2NC(=N)Nc2ccc(Cl)cc2)cc1 | 174 to 175 °C
CNC1=NS(=O)N=C1NCCCN(Cc1ccccc1)c1ccccn1 (stereo not drawn) | 122 to 123 °C
Cc1cc(C)c(S(=O)(=O)N(C)O)c(C)c1 | 83 to 84 °C
CC1=CCc2c1sc1c2CN(c2ccccc2Cl)CC2N(C(=O)O)CCN12 (stereo not drawn) | 160 to 162 °C
Oc1ccc(C2(c3ccc(O)c(Cl)c3)CCCCCCCCCCC2)cc1Cl | 167 to 169 °C
CCOC(=O)c1c(C(C)Cl)nc2c(C(F)(F)F)cccc2c1O (stereo not drawn) | 104 °C
CC(SC1COC(c2ccc(C(=O)Nc3ccc(F)cc3)cc2)OC1)C(O)(Cn1cncn1)c1ccc(F)cc1F (stereo not drawn) | 104 °C
CCn1ncc2c3noc(-c4cccc(F)c4)c3cnc21 | 182 to 184 °C
Cc1cccc(NC(=O)NCC(=O)N(CC(=O)Nc2cccc3cccnc23)c2ccccc2)c1 | 170 °C
O=C(O)c1cccc(NC(=O)C(CS)Cc2ccccc2)c1 (stereo not drawn) | 178 to 180 °C
CC(=O)c1ccc(OCCOc2ccc3ccccc3c2)cc1Cl | 119 to 120 °C

Reference: a melting point compilation (Tetko et al.; mined from patent text by program, amines drawn as free bases though some values may be those of a salt)
